Measurements reported in patent publication US9108944B2, “Androgen receptor modulators and uses thereof” (ARAGON PHARMACEUTICALS, INC., priority 2010, dated 2015).

Tests used:
AR-VP16 [1] = target: T1, AR-VP16 (Homo sapiens, UniProt P10275); test: AR-VP16 DNA Binding Assay, agonist mode (HepG2 cells); format: cell-based; settings: Emax >20x DMSO control = agonist
T1 sequence (P10275 560-920 limits assumed): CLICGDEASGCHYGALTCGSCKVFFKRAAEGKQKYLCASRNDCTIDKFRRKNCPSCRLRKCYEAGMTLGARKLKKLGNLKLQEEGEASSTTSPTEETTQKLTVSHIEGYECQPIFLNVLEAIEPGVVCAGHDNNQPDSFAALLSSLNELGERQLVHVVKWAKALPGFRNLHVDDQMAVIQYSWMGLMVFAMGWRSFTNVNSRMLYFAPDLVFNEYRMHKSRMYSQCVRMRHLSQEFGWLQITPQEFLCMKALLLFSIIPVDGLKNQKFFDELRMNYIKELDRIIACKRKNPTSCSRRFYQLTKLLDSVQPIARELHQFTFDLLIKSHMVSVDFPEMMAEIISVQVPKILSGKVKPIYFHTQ

AR-VP16 [2] = target: T1, AR-VP16; test: AR-VP16 DNA Binding Assay, antagonist mode (HepG2 cells, 0.1 nM R1881); format: cell-based
Summary of the method: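 HepG2 cells transiently transfected with AR-VP16 (Lipofectin), incubated overnight, then treated with compound in RPMI with charcoal-stripped serum. Antagonist mode adds R1881 at 0.1 nM final. Cells lysed after 48 h incubation for read-out.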

CCOC(=O)CN1CCC(Oc2ccc(N3C(=S)N(c4cnc(C#N)c(C(F)(F)F)c4)C(=O)C34CCC4)cc2)CC1 [Compound 221, Ethyl 2-(4-(4-(7-(6-cyano-5-(trifluoromethyl)pyridin-3-yl)-8-oxo-6-thioxo-5,7-diazaspiro[3.4]octan-5-yl)phenoxy)piperidin-1-yl)acetate]
ARVP16 DNA Binding Assay (Agonist mode): Agonist? (AR-VP16 [1]): No (Agonist defined as a compound whose Emax in the ARVP16 DNA Binding Assay (Agonist mode) is >20x DMSO control) | IC50 (AR-VP16 [2]): > 1000 nM

Cn1nccc1CCOc1ccc(N2C(=S)N(c3cnc(C#N)c(C(F)(F)F)c3)C(=O)C23CCC3)cc1F [Compound 126, 5-(5-(3-Fluoro-4-(2-(1-methyl-1H-pyrazol-5-yl)ethoxy)phenyl)-8-oxo-6-thioxo-5,7-diazaspiro[3.4]octan-7-yl)-3-(trifluoromethyl)picolinonitrile]
ARVP16 DNA Binding Assay (Agonist mode): Agonist? (AR-VP16 [1]): Yes (Agonist defined as a compound whose Emax in the ARVP16 DNA Binding Assay (Agonist mode) is >20x DMSO control) | IC50 (AR-VP16 [2]): < 1000 nM

N#Cc1ncc(N2C(=O)C3(CCC3)N(c3ccc(Oc4cnccn4)cc3)C2=S)cc1C(F)(F)F [Compound 207, 5-(8-Oxo-5-(4-(pyrazin-2-yloxy)phenyl)-6-thioxo-5,7-diazaspiro[3.4]octan-7-yl)-3-(trifluoromethyl)picolinonitrile]
ARVP16 DNA Binding Assay (Agonist mode): Agonist? (AR-VP16 [1]): No (Agonist defined as a compound whose Emax in the ARVP16 DNA Binding Assay (Agonist mode) is >20x DMSO control) | IC50 (AR-VP16 [2]): < 1000 nM

Cc1cc(N2C(=O)C3(CCC3)N(c3ccc(C(=O)Nc4ccccc4F)c(F)c3)C2=S)cnc1C#N [Compound 297, 4-(7-(6-Cyano-5-methylpyridin-3-yl)-8-oxo-6-thioxo-5,7-diazaspiro[3.4]octan-5-yl)-2-fluoro-N-(2-fluorophenyl)benzamide]
ARVP16 DNA Binding Assay (Agonist mode): Agonist? (AR-VP16 [1]): No (Agonist defined as a compound whose Emax in the ARVP16 DNA Binding Assay (Agonist mode) is >20x DMSO control) | IC50 (AR-VP16 [2]): < 1000 nM

Cc1cc(N2C(=O)C(C)(C)N(c3ccc(OC4CCN(C)CC4)cc3)C2=S)cnc1C#N [Compound 197, 5-(4,4-Dimethyl-3-(4-((1-methylpiperidin-4-yl)oxy)phenyl)-5-oxo-2-thioxoimidazolidin-1-yl)-3-methylpicolinonitrile]
ARVP16 DNA Binding Assay (Agonist mode): Agonist? (AR-VP16 [1]): No (Agonist defined as a compound whose Emax in the ARVP16 DNA Binding Assay (Agonist mode) is >20x DMSO control) | IC50 (AR-VP16 [2]): > 1000 nM

N#Cc1ncc(N2C(=O)C3(CCC3)N(c3ccc4cnccc4c3)C2=S)cc1C(F)(F)F [Compound 51, 5-(5-(Isoquinolin-6-yl)-8-oxo-6-thioxo-5,7-diazaspiro[3.4]octan-7-yl)-3-(trifluoromethyl)picolinonitrile]
ARVP16 DNA Binding Assay (Agonist mode): Agonist? (AR-VP16 [1]): No (Agonist defined as a compound whose Emax in the ARVP16 DNA Binding Assay (Agonist mode) is >20x DMSO control) | IC50 (AR-VP16 [2]): < 1000 nM

N#Cc1ncc(N2C(=O)C3(CCC3)N(c3ccc(F)c(OCCN4CCOCC4)c3)C2=S)cc1C(F)(F)F [Compound 164, 5-(5-(4-Fluoro-3-(2-morpholinoethoxy)phenyl)-8-oxo-6-thioxo-5,7-diazaspiro[3.4]octan-7-yl)-3-(trifluoromethyl)picolinonitrile]
ARVP16 DNA Binding Assay (Agonist mode): Agonist? (AR-VP16 [1]): No (Agonist defined as a compound whose Emax in the ARVP16 DNA Binding Assay (Agonist mode) is >20x DMSO control) | IC50 (AR-VP16 [2]): > 1000 nM

O=C1N(c2ccc3nnc(C(F)(F)F)n3n2)C(=S)N(c2ccc(O)c(F)c2)C12CCC2 [Compound 117, 5-(3-Fluoro-4-hydroxyphenyl)-6-thioxo-7-(3-(trifluoromethyl)-[1,2,4]triazolo[4,3-b]pyridazin-6-yl)-5,7-diazaspiro[3.4]octan-8-one]
ARVP16 DNA Binding Assay (Agonist mode): Agonist? (AR-VP16 [1]): No (Agonist defined as a compound whose Emax in the ARVP16 DNA Binding Assay (Agonist mode) is >20x DMSO control) | IC50 (AR-VP16 [2]): > 1000 nM

Cc1cc(N2C(=O)C3(CCC3)N(c3ccc(OC4CCN(CCO)CC4)cc3)C2=S)cnc1C#N [Compound 217, 5-(5-(4-((1-(2-Hydroxyethyl)piperidin-4-yl)oxy)phenyl)-8-oxo-6-thioxo-5,7-diazaspiro[3.4]octan-7-yl)-3-methylpicolinonitrile]
ARVP16 DNA Binding Assay (Agonist mode): Agonist? (AR-VP16 [1]): No (Agonist defined as a compound whose Emax in the ARVP16 DNA Binding Assay (Agonist mode) is >20x DMSO control) | IC50 (AR-VP16 [2]): < 1000 nM

N#Cc1ncc(N2C(=O)C3(CCC3)N(c3ccc(OCCCC[S+]([O-])CCCC(F)(F)C(F)(F)F)c(F)c3)C2=S)cc1C(F)(F)F (stereo not shown) [Compound 152, 5-(5-(3-Fluoro-4-(4-((4,4,5,5,5-pentafluoropentyl)sulfinyl)butoxy)phenyl)-8-oxo-6-thioxo-5,7-diazaspiro[3.4]octan-7-yl)-3-(trifluoromethyl)picolinonitrile]
ARVP16 DNA Binding Assay (Agonist mode): Agonist? (AR-VP16 [1]): No (Agonist defined as a compound whose Emax in the ARVP16 DNA Binding Assay (Agonist mode) is >20x DMSO control) | IC50 (AR-VP16 [2]): < 1000 nM

CCC(=O)N1CCC(Oc2ccc(N3C(=S)N(c4cnc(C#N)c(C(F)(F)F)c4)C(=O)C34CCC4)cc2)CC1 [Compound 212, 5-(8-Oxo-5-(4-((1-propionylpiperidin-4-yl)oxy)phenyl)-6-thioxo-5,7-diazaspiro[3.4]octan-7-yl)-3-(trifluoromethyl)picolinonitrile]
ARVP16 DNA Binding Assay (Agonist mode): Agonist? (AR-VP16 [1]): Yes (Agonist defined as a compound whose Emax in the ARVP16 DNA Binding Assay (Agonist mode) is >20x DMSO control) | IC50 (AR-VP16 [2]): < 1000 nM

N#Cc1ncc(N2C(=O)C3(CCC3)N(c3ccc(F)c(OCCc4cccnc4)c3)C2=S)cc1C(F)(F)F [Compound 159, 5-(5-(4-Fluoro-3-(2-(pyridin-3-yl)ethoxy)phenyl)-8-oxo-6-thioxo-5,7-diazaspiro[3.4]octan-7-yl)-3-(trifluoromethyl)picolinonitrile]
ARVP16 DNA Binding Assay (Agonist mode): Agonist? (AR-VP16 [1]): No (Agonist defined as a compound whose Emax in the ARVP16 DNA Binding Assay (Agonist mode) is >20x DMSO control) | IC50 (AR-VP16 [2]): > 1000 nM

N#Cc1ncc(N2C(=O)C3(CCC3)N(c3ccc(OCCCc4ccccc4)c(F)c3)C2=S)cc1C(F)(F)F [Compound 138, 5-(5-(3-Fluoro-4-(3-phenylpropoxy)phenyl)-8-oxo-6-thioxo-5,7-diazaspiro[3.4]octan-7-yl)-3-(trifluoromethyl)picolinonitrile]
ARVP16 DNA Binding Assay (Agonist mode): Agonist? (AR-VP16 [1]): No (Agonist defined as a compound whose Emax in the ARVP16 DNA Binding Assay (Agonist mode) is >20x DMSO control) | IC50 (AR-VP16 [2]): > 1000 nM

CNC(=O)c1ccc(N2C(=S)N(c3cnc(C#N)c(C)c3)C(=O)C23CCCC3)cc1F [Compound 6, 4-(3-(6-Cyano-5-methylpyridin-3-yl)-4-oxo-2-thioxo-1,3-diazaspiro[4.4]nonan-1-yl)-2-fluoro-N-methylbenzamide]
ARVP16 DNA Binding Assay (Agonist mode): Agonist? (AR-VP16 [1]): No (Agonist defined as a compound whose Emax in the ARVP16 DNA Binding Assay (Agonist mode) is >20x DMSO control) | IC50 (AR-VP16 [2]): < 1000 nM

N#Cc1ncc(N2C(=O)C3(CCC3)N(c3ccc(C(=O)Nc4ccncc4)c(F)c3)C2=S)cc1C(F)(F)F [Compound 263, 4-(7-(6-Cyano-5-(trifluoromethyl)pyridin-3-yl)-8-oxo-6-thioxo-5,7-diazaspiro[3.4]octan-5-yl)-2-fluoro-N-(pyridin-4-yl)benzamide]
ARVP16 DNA Binding Assay (Agonist mode): Agonist? (AR-VP16 [1]): Yes (Agonist defined as a compound whose Emax in the ARVP16 DNA Binding Assay (Agonist mode) is >20x DMSO control) | IC50 (AR-VP16 [2]): < 1000 nM

N#Cc1ncc(N2C(=O)C3(CCC3)N(c3ccc(OC4CCNCC4)cc3)C2=S)cc1C(F)(F)F [Compound 211, 5-(8-Oxo-5-(4-(piperidin-4-yloxy)phenyl)-6-thioxo-5,7-diazaspiro[3.4]octan-7-yl)-3-(trifluoromethyl)picolinonitrile]
ARVP16 DNA Binding Assay (Agonist mode): Agonist? (AR-VP16 [1]): No (Agonist defined as a compound whose Emax in the ARVP16 DNA Binding Assay (Agonist mode) is >20x DMSO control) | IC50 (AR-VP16 [2]): < 1000 nM

N#Cc1ncc(N2C(=O)C3(CCC3)N(c3cccc(Oc4ccccc4)c3)C2=S)cc1C(F)(F)F [Compound 24, 5-(8-Oxo-5-(3-phenoxyphenyl)-6-thioxo-5,7-diazaspiro[3.4]octan-7-yl)-3-(trifluoromethyl)picolinonitrile]
ARVP16 DNA Binding Assay (Agonist mode): Agonist? (AR-VP16 [1]): No (Agonist defined as a compound whose Emax in the ARVP16 DNA Binding Assay (Agonist mode) is >20x DMSO control) | IC50 (AR-VP16 [2]): > 1000 nM

Cc1cc(N2C(=O)C3(CCC3)N(c3ccc(C(N)=O)c(F)c3)C2=S)cnc1C#N [Compound 232, 4-(7-(6-Cyano-5-methylpyridin-3-yl)-8-oxo-6-thioxo-5,7-diazaspiro[3.4]octan-5-yl)-2-fluorobenzamide]
ARVP16 DNA Binding Assay (Agonist mode): Agonist? (AR-VP16 [1]): No (Agonist defined as a compound whose Emax in the ARVP16 DNA Binding Assay (Agonist mode) is >20x DMSO control) | IC50 (AR-VP16 [2]): < 1000 nM

N#Cc1ncc(N2C(=O)C3(CCC3)N(c3ccc(Oc4ccncc4)cc3)C2=S)cc1C(F)(F)F [Compound 40, 5-(8-Oxo-5-(4-(pyridin-4-yloxy)phenyl)-6-thioxo-5,7-diazaspiro[3.4]octan-7-yl)-3-(trifluoromethyl)picolinonitrile]
ARVP16 DNA Binding Assay (Agonist mode): Agonist? (AR-VP16 [1]): No (Agonist defined as a compound whose Emax in the ARVP16 DNA Binding Assay (Agonist mode) is >20x DMSO control) | IC50 (AR-VP16 [2]): < 1000 nM

CCCCNC(=O)c1ccc(N2C(=S)N(c3cnc(C#N)c(C(F)(F)F)c3)C(=O)C23CCC3)cc1F [Compound 277, N-Butyl-4-(7-(6-cyano-5-(trifluoromethyl)pyridin-3-yl)-8-oxo-6-thioxo-5,7-diazaspiro[3.4]octan-5-yl)-2-fluorobenzamide]
ARVP16 DNA Binding Assay (Agonist mode): Agonist? (AR-VP16 [1]): No (Agonist defined as a compound whose Emax in the ARVP16 DNA Binding Assay (Agonist mode) is >20x DMSO control) | IC50 (AR-VP16 [2]): < 1000 nM
